In patent US10842785B2, “PIM kinase inhibitors in combination with RNA splicing modulators/inhibitors for treatment of cancers” (UNIVERSITY OF MARYLAND, BALTIMORE COUNTY, priority 2016, dated 2020):
“Also recorded” adds a separate entry of the source.

Key:
Type in all cases: cell-based
MOLM16 cells = test: MTT assay (number of live cells), MOLM16 cells, single inhibitors and combination, Compusyn CI; details: 48 hours
Experimental: (§1) General experimental procedure: 10,000 (MOLM16) or 20,000 (EOL1) cells were seeded per well in 96-well plates. After culturing overnight, AZD1208 and/or Pladienolide B/SRPIN340 were added to wells in quadruplicates at 5 different concentrations. Different ratios between AZD1208 and Pladienolide B were tried in MOLM16 and EOL1 cells. At 48 hours the MTT metabolism indicative of number of live cells was measured by MTT assay (Promega, Cat: G4000). The resulting values were used to evaluate the Fa (fraction affected) values, which were plugged into the Compusyn software to calculate the combination indices (CI values) at ED50, ED75, ED90 and ED95 (ED—Effective dose of combination).
These values of drug dose and effect (fraction of cells affected by the treatment—FA values) were input into the Compusyn software to estimate the interaction between the two drugs.

EOL1 cells = test: MTT assay (number of live cells), EOL1 cells, single inhibitors and combination, Compusyn CI; details: for Effect (fraction of cells affected, FA): 48 hours
Experimental: as §1
To further confirm the finding in MOLM16 cells, it was tested whether the combination of AZD1208 and Pladienolide B is synergistic in another AML cell line—EOL1. Different ratios between AZD1208 and Pladienolide B were tested to identify the ideal ratio that provides maximum synergy.

[1] = test system: SR protein phosphorylation; test: Western blot using phospho-SR protein antibody; details: MOLM16 and EOL1 cells, versus DMSO treated controls
Experimental: MOLM16 and EOL1 cells were treated with AZD1208 or SRPIN340 for indicated concentration and time. Cells lysates from treated cells were used for western blot analysis.
Phosphorylation of splicing factors is known to play a role in regulation of splicing. Phosphorylation of splicing factors called serine arginine rich proteins (SR proteins) is known to regulate their function and localization. Serine arginine rich protein kinases (SRPK1 and SRPK2) phosphorylate these proteins and inhibition of SRPK activity using the small molecule modulator SRPIN340 leads to reduction in phosphorylation. The level of SR protein phosphorylation can be visualized using phospho-SR protein antibody. It was investigated to determine if PIM kinases regulate SRPK activity to indirectly lead to changes in splicing. […] Thus, it was concluded that the SRPK activity was not affected by PIM kinase inhibition.

MCL1 splice variants = test: Taqman qRT-PCR for MCL1 splice variants in MOLM16 cells; details: MOLM16, 20 μM, 24 hours
Description: Control=DMSO treated. […] Arrow indicate bands that change after AZD1208 treatment.
A few targets from the microarray data were chosen, that being, ones that were affected by PIM kinase inhibition. The procedure was manual curation of data, followed by reference seq analysis of splice variants to determine avalibilty of sequence information. Initially, changes in splice variants of a known apoptotic regulator, MCL1 were validated. The smaller isoform of MCL1 is pro-apototic, while the longer isoform has anti-apototic functions.

## CCC(O)C(C)C1OC1CC(C)/C=C/C=C(\C)C1OC(=O)CC(O)CCC(C)(O)C(OC(C)=O)/C=C/C1C (stereo not drawn) [Pladienolide B, pladienolide B]
MOLM16 cells; MOLM16, Trial 1, 0.002 μM
  Effect (fraction of cells affected, FA): 0.517
MOLM16 cells; MOLM16, Trial 1, 0.004 μM
  Effect (fraction of cells affected, FA): 0.599
MOLM16 cells; MOLM16, Trial 1, 0.006 μM
  Effect (fraction of cells affected, FA): 0.711
MOLM16 cells; MOLM16, Trial 1, 0.008 μM
  Effect (fraction of cells affected, FA): 0.726
MOLM16 cells; MOLM16, Trial 1, 0.01 μM
  Effect (fraction of cells affected, FA): 0.757
MOLM16 cells; MOLM16, Trial 2, 0.002 μM
  Effect (fraction of cells affected, FA): 0.487
MOLM16 cells; MOLM16, Trial 2, 0.004 μM
  Effect (fraction of cells affected, FA): 0.676
MOLM16 cells; MOLM16, Trial 2, 0.006 μM
  Effect (fraction of cells affected, FA): 0.752
MOLM16 cells; MOLM16, Trial 2, 0.008 μM
  Effect (fraction of cells affected, FA): 0.821
MOLM16 cells; MOLM16, Trial 2, 0.01 μM
  Effect (fraction of cells affected, FA): 0.862
MOLM16 cells; MOLM16, Trial 3, 0.002 μM
  Effect (fraction of cells affected, FA): 0.393
MOLM16 cells; MOLM16, Trial 3, 0.004 μM
  Effect (fraction of cells affected, FA): 0.607
MOLM16 cells; MOLM16, Trial 3, 0.006 μM
  Effect (fraction of cells affected, FA): 0.696
MOLM16 cells; MOLM16, Trial 3, 0.008 μM
  Effect (fraction of cells affected, FA): 0.749
MOLM16 cells; MOLM16, Trial 3, 0.01 μM
  Effect (fraction of cells affected, FA): 0.814
EOL1 cells; EOL1, Trial 1
  relative sensitivity of the cells to the two drugs: more sensitive to Pladienolide B than AZD1208
EOL1 cells; EOL1, Trial 1, 0.001 μM
  Effect (fraction of cells affected, FA): 0.315
EOL1 cells; EOL1, Trial 1, 0.002 μM
  Effect (fraction of cells affected, FA): 0.633
EOL1 cells; EOL1, Trial 1, 0.003 μM
  Effect (fraction of cells affected, FA): 0.890
EOL1 cells; EOL1, Trial 1, 0.004 μM
  Effect (fraction of cells affected, FA): 0.957
EOL1 cells; EOL1, Trial 1, 0.005 μM
  Effect (fraction of cells affected, FA): 0.982
EOL1 cells; EOL1, Trial 2, 0.0005 μM
  Effect (fraction of cells affected, FA): 0.060
EOL1 cells; EOL1, Trial 2, 0.001 μM
  Effect (fraction of cells affected, FA): 0.351
EOL1 cells; EOL1, Trial 2, 0.0015 μM
  Effect (fraction of cells affected, FA): 0.528
EOL1 cells; EOL1, Trial 2, 0.002 μM
  Effect (fraction of cells affected, FA): 0.706
EOL1 cells; EOL1, Trial 2, 0.0025 μM
  Effect (fraction of cells affected, FA): 0.820
EOL1 cells; EOL1, Trial 3, 0.0005 μM
  Effect (fraction of cells affected, FA): 0.095
EOL1 cells; EOL1, Trial 3, 0.001 μM
  Effect (fraction of cells affected, FA): 0.360
EOL1 cells; EOL1, Trial 3, 0.0015 μM
  Effect (fraction of cells affected, FA): 0.542
EOL1 cells; EOL1, Trial 3, 0.002 μM
  Effect (fraction of cells affected, FA): 0.667
EOL1 cells; EOL1, Trial 3, 0.0025 μM
  Effect (fraction of cells affected, FA): 0.814

## O=C(Nc1cc(C(F)(F)F)ccc1N1CCCCC1)c1ccncc1 [SRPIN340, N-[2-(1-Piperidinyl)-5-(trifluoromethyl)phenyl]-4-pyridinecarboxamide]
MOLM16 cells; MOLM16, SRPIN340 testing Trial 1, 5 μM
  Effect (fraction of cells affected, FA): 0.004
MOLM16 cells; MOLM16, SRPIN340 testing Trial 1, 10 μM
  Effect (fraction of cells affected, FA): 0.014
MOLM16 cells; MOLM16, SRPIN340 testing Trial 1, 20 μM
  Effect (fraction of cells affected, FA): 0.385
[1]
  SR protein phosphorylation: reduction in phosphorylation signal; also recorded: phosphorylation of SR proteins changes
MCL1 splice variants
  changes in MCL1 splicing: Changes in MCL1 splicing were not observed
